Refractive index, mass density and Normal boiling temperature data for three molecules are collected here from the NIST ThermoML archive (doi:10.1016/j.jct.2007.01.013).

± gives the expanded uncertainty stated by the source.

Series [1] is described as follows: refractive index (Na D-line) (dimensionless). Particulars: 293.15 K; 101.33 kPa; Liquid; Standard Abbe refractometry.
For series [2] the following is noted: Liquid; for mass density: 101.33 kPa; for Normal boiling temperature: Distillation.

On to `CCCCOC(=O)c1ccccc1C(=O)OCCCC` [dibutyl phthalate], for which, in series [1], the refractive index (usually the speed of light in vacuum divided by its phase velocity in the sample) came out at 1.49114 ± 0.0007. For the same molecule, the mass density (usually mass per unit of volume) in series [2] (293.15 K) worked out at 1046.54 ± 0.79 kg/m3. Also, the Normal boiling temperature in series [2] worked out at 340.1 ± 0.2 °C.
Take `CCOC(=O)CC` [ethyl propanoate]: in series [1], the refractive index came to 1.38394 ± 0.0007. Moreover, in series [2] (298 K), the mass density was found to be 884.35 ± 1 kg/m3. Further, the Normal boiling temperature in series [2] was found to be 99.1 ± 0.2 °C.
Turning to `COC(=O)c1ccccc1C(=O)OC` [dimethyl 1,2-benzenedicarboxylate], in series [1], the refractive index turned out to be 1.51384 ± 0.0007. For the same molecule, the mass density in series [2] (293.15 K) amounted to 1190.53 ± 1.5 kg/m3. For the same molecule, the Normal boiling temperature in series [2] stood at 283.6 ± 0.2 °C.
